Common to all, as to format: cell-based
Assay [1] has as its system Rhodotorula mucilaginosa. The assay can be described thus: Suppression of metabolism of 14-methylhexadecanoic acid on cotton fabric. The settings on record: agent 250 μg/fabric g. On the procedure:
(§1) A methanol solution in which 14-methylhexadecanoic acid (SIGMA-ALDRICH) was dissolved was added dropwise to 3 cm×3 cm pieces of sterilized plain-weave cotton fabric to make it adhered to the fabric. The adhesion amount of 14-methylhexadecanoic acid was set to 10 μg per piece of the plain-weave cotton fabric (100 μg/fabric g).
(§2) Further, a methanol solution in which each metabolism controlling agent was dissolved was prepared and added dropwise to the fabric to which 14-methylhexadecanoic acid adhered, and it was thereafter dried for an hour. This fabric was placed in a sterilized screw tube bottle No. 3 (Maruemu Corporation) and 100 μl of the bacterial suspension was inoculated thereto, and culture was carried out under 37° C.; conditions for 21 hours.
(§3) 3 ml of methanol was added to the screw tube bottle after culture, and extraction was carried out under ultrasonic irradiation for 30 minutes (20° C.). The extraction liquid was mixed with a (trimethylsilyl)diazomethane hexane solution (FUJIFILM Wako Pure Chemical Corporation) at 9:1 (volume ratio) and left overnight under room temperature and dark place conditions. After that, 14-methylhexadecanoic acid remaining on the fabric was quantified by GC. The quantification conditions for GC are as follows. • GC: Agilent 7890A • GC column: Agilent DB-1 30 m×250 μm×0.25 μm • Temperature rise condition: 50° C. (held for 3 minutes)-(10° C./min)-300° C. (held for 5 minutes) • Sample injection volume: 1 μl • Split ratio: 1:12 • Detector: FID
(§4) The residual amount of 14-methylhexadecanoic acid after culture on the fabric to which the metabolism controlling agent was added was quantified, and the ratio of the residual amount to that of 14-methylhexadecanoic acid in the case of adding no metabolism controlling agent (control) was calculated as a metabolism suppression rate (%). The higher a numerical value thereof is, the more the metabolism is suppressed. Note that the metabolism suppression rate was determined by the following formula:
(§5) Metabolism suppression rate(%)=[1−(100−A)/(100−B)]×100 • A: residual amount of 14-methylhexadecanoic acid of example or comparative example (μg/fabric g) • B: residual amount of 14-methylhexadecanoic acid of control (μg/fabric g)
(§6) The metabolism of 14-methylhexadecanoic acid by yeast of the genus Rhodotorula was tested in the same manner as in example 1.
(§7) In this example, Rhodotorula mucilaginosa (strain isolated from clothing) was used as a microorganism.
(§8) Further, in this example, the bacteria were precultured under conditions of a PDA agar medium (Difco), 30° C.; and 48 hours.
(§9) Further, in this example, a bacterial suspension of 10^7 (CFU/ml) prepared by using a PDB liquid medium (Difco) diluted to 1/10 with ion exchange water was used as a bacterial suspension.

Assay [2] deals with Micrococcus aloeverae. The description is as above. On the procedure: as §1, §2, §3, §4, §5
(§10) The metabolism of 14-methylhexadecanoic acid by bacteria of the genus Micrococcus was tested in the same manner as in example 1.
(§11) In this example, Micrococcus aloeverae (strain isolated from clothing) was used as a microorganism.
(§12) Further, in this example, a bacterial suspension of 10^7 (CFU/ml) prepared by using an SCD liquid medium (NIHON PHARMACEUTICAL CO., LTD.) diluted to 1/10 with ion exchange water was used as a bacterial suspension.
(§13) Note that, in this example, C12OH (1-dodecanol) was used as the metabolism controlling agent.

In assay [3] the test system is Rhodotorula mucilaginosa. The assay can be described thus: Measurement of viable count on fabric (PDA agar). On the procedure: (§14) After culture on fabric prepared in the same manner as in the above (1), 9 mL of an LP diluent (manufactured by NIHON PHARMACEUTICAL CO., LTD.) was added, and the extraction of the bacteria was carried out under ultrasound for 10 minutes. The extraction liquid was poured and mixed to an SCD-LP agar medium (NIHON PHARMACEUTICAL CO., LTD.), and culture was thereafter carried out at 37° C.; for a day. The number of colonies obtained on each piece of the fabric was counted, and a common logarithm value thereof was measured as the viable bacterial count. […] In addition, the […], the more the viable bacterial count of the microorganism is maintained.
as §6, §7, §8, §9
Further, in this example, after the extraction of the bacteria in (3) of example 1, they were poured and mixed to a PDA agar medium (Difco) and thereafter cultured at 30° C.; for 2 days, and the viable bacterial count was measured.
as §13

The subject of assay [4] is Micrococcus aloeverae. The assay can be described thus: Suppression of metabolite 2-methylbutanoic acid from 14-methylhexadecanoic acid. On the procedure: After culture on fabric prepared in the same manner as in the above (1), 3 ml of methanol was added, and extraction was carried out under ultrasonic irradiation for 30 minutes (20° C.). The extraction liquid was mixed with (a 1000 ppm methanol solution of) an ADAM reagent of Funakoshi Co., Ltd. at 1:1 (volume ratio) and left overnight under room temperature and dark place conditions. After that, 4-methyl-3-hexenoic acid as a metabolite from 14-methylhexadecanoic acid was quantified by HPLC. The quantification conditions are as follows.
The production amount of 4-methyl-3-hexenoic acid after culture on the fabric to which each metabolism controlling agent was added was quantified, and the ratio of the production amount to that of 4-methyl-3-hexenoic acid in the case of adding no metabolism controlling agent (control) was calculated as a metabolite suppression rate (%). The higher a numerical value thereof is, the more the metabolism is suppressed. Note that the metabolite suppression rate was determined by the following formula:
Metabolite suppression rate(%)=100×[(D−C)/D] • C: production amount of metabolite of example or comparative example (μg/fabric g) • D: production amount of metabolite of control (μg/fabric g)
as §10, §11, §12
Further, in this example, 2-methylbutanoic acid was quantified as a metabolite from 14-methylhexadecanoic acid, and the metabolite suppression rate was determined in the same manner as in example 1.
as §13

In the next assay the test system is Moraxella osloensis. The assay is described as follows: Examination example: measurement of viable bacterial count. The following applies: single agent 100 μg/fabric g. On the procedure:
as §14

“And” between values parts separate entries of the source, which are not always exact repeats. Equal values may be shown once.

As to `CCCCCCCCCCCCO` [Example C12OH, 1-dodecanol], the “Metabolism suppression rate (%)” value in the assay with Rhodotorula mucilaginosa [1] was 68%; with Micrococcus aloeverae [2] (agent 100 μg/fabric g), 16.7%; in the assay on Micrococcus aloeverae [2] (agent 250 μg/fabric g) it was 73% and 55.0%; in the assay on Micrococcus aloeverae [2] (agent 500 μg/fabric g), 85.8%; in the assay with Micrococcus aloeverae [2] (agent 1000 μg/fabric g), 86.9%. Also, the “Bacterial count (Log (cfu/fabric cm^2))” value with Rhodotorula mucilaginosa [3] (agent 250 μg/fabric g) is recorded as 4.9 Log (cfu/fabric cm^2); in the assay on Rhodotorula mucilaginosa [3] (agent 500 μg/fabric g) it was 4.7 Log (cfu/fabric cm^2); in the assay on Rhodotorula mucilaginosa [3] (agent 1000 μg/fabric g) it was 4.8 Log (cfu/fabric cm^2). In addition, the “Metabolite suppression rate (%)” value with Micrococcus aloeverae [4] (agent 100 μg/fabric g) was 21%; in the assay with Micrococcus aloeverae [4] (agent 250 μg/fabric g) it was 79% and 74%; in the assay on Micrococcus aloeverae [4] (agent 500 μg/fabric g) it was 75%; with Micrococcus aloeverae [4] (agent 1000 μg/fabric g) it was 75%. The “Viable bacterial count (Log (cfu/fabric cm^2))” value in the assay on Moraxella osloensis is listed as 6.2 Log (cfu/fabric cm^2).

Source of the values: patent publication US20220408724A1, “METHOD FOR CONTROLLING METABOLISM OF BRANCHED FATTY ACID” (KAO CORPORATION, priority 2019, published 2022).
